Data as given in PubChem BioAssay AID1918994 (Molecular Pharmacology Branch, DTP, NCI, 2023).
Where “and” joins values, the source holds several entries; their conditions need not be identical. Equal entries are not always repeated. Values belong to the molecule of their own block, whether it stands above or below them.

Tested on: 292921-168-R-J2-PDC complex spheroid growth
Test: Anticancer human tumor 292921-168-R-J2-PDC patient-derived pancreatic carcinoma cell line growth inhibition [AhR]
Settings: for viability, T/C: stronger effect = lower value; for IC50: curve of compound
Text: Multicellular complex tumor spheroid response to aryl hydrocarbon receptor antagonists in combination with a variety of drugs and investigational agents in selected tumor cell lines
The current study was undertaken to assess response to aryl hydrocarbon receptor antagonists in combination with standard-of-care drugs and investigational agents in solid tumor complex spheroid models. Complex spheroids include a stromal component modeled by human endothelial cells (HUVEC) and fibroblasts modeled by human mesenchymal stem cells (MSCs). The concentration ranges selected for each drug and investigational agent were based upon clinically achievable concentrations if the clinical Cmax of the agent was known.
Compounds. The drugs and investigational agents: BAY 2416964 (NSC825713), GNF351 (NSC835774), CH-223191 (NSC835775), CPI-455 (NSC825282), aza-TdCyd (NSC777586), decitabine (NSC127716), belinostat (NSC758774), entinostat (NSC756642), pevonedistat (NSC761192), tazemetostat (NSC777109), talazoparib (NSC765396), olaparib (NSC753686), selinexor (NSC780203), nedisertib (M3814, NSC802822), bortezomib (NSC756655), venetoclax (NSC766270), doxorubicin (NSC123127), elimusertib (BAY189344, NSC800525), ceralasertib (AZD6738, NSC777638), TAK-243 (NSC785004), alisertib (NSC759677), etoposide (NSC141540), topotecan (NSC609699), eribulin (NSC707389), gemcitabine (NSC613327), carboplatin (NSC241240), cisplatin (NSC119875), and SN-38 (NSC673596) were obtained from the National Cancer Institute (NCI) Developmental Therapeutics Program Chemical Repository (32). The FDA-approved anticancer drug set is available from the Developmental Therapeutics Program at https://dtp.cancer.gov/organization/dscb/obtaining/available plates.htm. […] The stock solutions were prepared in dimethyl sulfoxide (DMSO, Sigma-Aldrich, St. Louis, MO, cat. D2650), except for the platinum compounds which were prepared in saline (Quality Biological, Gaithersburg, MD, cat. 114-055-101), at 800-fold the tested concentration and stored at -70 degrees C prior to their use. All drugs and investigational agents were tested over a range starting from a high concentration at or near the clinical Cmax and decreasing in half-log increments. If the clinical Cmax for an agent had not been determined, the highest concentration tested was 10 microM (Table 1).
Cell Culture. All cells were maintained in an incubator at 37 degrees C and 5% CO2 with 95% humidity. The PDC lines were cultured according to standard operating procedures established by the NCI PDMR (https://pdmr.cancer.gov). Briefly, all PDCs were thawed and cultured in Matrigel-coated flasks prepared with a working solution of 1X Ham's F-12 nutrient mix, without supplementation (Invitrogen, Waltham, MA, cat. 11765054), 100 U/mL penicillin-streptomycin (Invitrogen, cat. 15140122), and 2.5% Matrigel (Corning Inc., Corning, NY, cat. 354248) for the first three passages. All PDCs were cultured in complete DMEM/F-12 media containing advanced DMEM/F-12 (Invitrogen, cat. 12634028), 4.9% defined fetal bovine serum, heat inactivated (HyClone Laboratories Inc., Logan, UT, cat. SH30070.03HI), 389 ng/mL hydrocortisone (Sigma-Aldrich, cat. H4001), 9.7 ng/mL human EGF recombinant protein (Invitrogen, cat. PHG0313), 23.4 microg/mL adenine (Sigma-Aldrich, cat. A2786), 97.3 U/mL penicillin-streptomycin (Invitrogen, cat. 15140122), 1.9 mM L-glutamine (Invitrogen, cat. 25030081), and 9.7 microM Y-27632 dihydrochloride (Tocris Bioscience, Bristol, United Kingdom, cat. 1254). The PDCs were cultured in complete DMEM/F12 media without 10 microM Y-27632 dihydrochloride for at least two passages prior to the screen. The established cell lines NCI-H1341 and […] were cultured in DMEM/F-12, HEPES (Invitrogen, cat. 11330032), 5% defined fetal bovine serum (HyClone Laboratories Inc., cat. SH30070.03), ITS premix universal culture supplement [insulin (5 microg/mL), transferrin (5 microg/mL), and selenious acid (5 ng/mL)] […]
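Further: spheroids exposed to compounds for seven days after three days of growth.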

SMILES: CCN(c1cc(-c2ccc(CN3CCOCC3)cc2)cc(C(=O)NCc2c(C)cc(C)[nH]c2=O)c1C)C1CCOCC1
- viability, T/C (compound 0.00949 µM): 98.8% and 103% and 105%
- viability, T/C (compound 0.03 µM): 106% and 107% and 104%
- viability, T/C (compound 0.0949 µM): 109% and 96.8% and 96.2%
- viability, T/C (compound 0.3 µM): 100% and 97.3% and 98.5%
- viability, T/C (compound 0.949 µM): 99.8% and 89.8% and 102%
- viability, T/C (compound 3 µM): 93.2% and 91% and 90.2%
- IC50: > 3000 nM

SMILES: CCc1c2c(nc3ccc(O)cc13)-c1cc3c(c(=O)n1C2)COC(=O)[C@]3(O)CC
- viability, T/C (compound 0.000949 µM): 72.1% and 79.3% and 54.5%
- viability, T/C (compound 0.003 µM): 53.6% and 63.4% and 47.4%
- viability, T/C (compound 0.00949 µM): 25.5% and 20.2% and 23.6%
- viability, T/C (compound 0.03 µM): 12.2% and 9.77% and 13%
- viability, T/C (compound 0.0949 µM): 6.69% and 4.55% and 7%
- viability, T/C (compound 0.3 µM): 3.7% and 2.95% and 3.56%
- IC50: 3.42 nM and 4.29 nM and 1.79 nM

SMILES: COc1cc(Nc2ncc3c(n2)-c2ccc(Cl)cc2C(c2c(F)cccc2OC)=NC3)ccc1C(=O)O
- viability, T/C (compound 0.0316 µM): 53.9% and 45.2% and 56.9%
- viability, T/C (compound 0.1 µM): 49.2% and 45% and 39.5%
- viability, T/C (compound 0.316 µM): 49.9% and 53.6% and 45.8%
- viability, T/C (compound 1 µM): 57.9% and 51.2% and 43%
- viability, T/C (compound 3.16 µM): 49.8% and 40.5% and 41.5%
- viability, T/C (compound 10 µM): 41.7% and 31.2% and 30.7%

Continued, in another order:

- IC50: 4300 nM and 2860 nM and 3080 nM
SMILES: CC1COCCN1c1cc(C2(S(C)(=N)=O)CC2)nc(-c2ccnc3[nH]ccc23)n1 (stereo unspecified)
- viability, T/C (compound 0.0316 µM): 98% and 110% (2×)
- viability, T/C (compound 0.1 µM): 93.9% and 96.9% and 110%
- viability, T/C (compound 0.316 µM): 89.8% and 90.3% and 106%
- viability, T/C (compound 1 µM): 89.2% and 77.6% and 79.8%
- viability, T/C (compound 3.16 µM): 58% and 44.7% and 50.7%
- viability, T/C (compound 10 µM): 27.7% (2×) and 21.3%

- IC50: 45.6 nM and 30.7 nM and 24.4 nM
SMILES: CC[C@@]1(O)C(=O)OCc2c1cc1n(c2=O)Cc2cc3c(CN(C)C)c(O)ccc3nc2-1
- viability, T/C (compound 0.000316 µM): 110% and 102% and 99.3%
- viability, T/C (compound 0.001 µM): 103% and 107% and 96.5%
- viability, T/C (compound 0.00316 µM): 94.2% and 93.7% and 90.6%
- viability, T/C (compound 0.01 µM): 83.7% and 86.5% and 77.4%
- viability, T/C (compound 0.0316 µM): 59.3% and 48.2% and 41.8%
- viability, T/C (compound 0.1 µM): 28.4% and 23.3% and 20.4%

- IC50: 768 nM and 710 nM and 449 nM
SMILES: COc1cc(C2c3cc4c(cc3C(OC3OC5COC(C)OC5C(O)C3O)C3COC(=O)C23)OCO4)cc(OC)c1O (stereo unspecified)
- viability, T/C (compound 0.0316 µM): 96% and 96.6% and 96.5%
- viability, T/C (compound 0.1 µM): 93.8% and 79.8% and 87.8%
- viability, T/C (compound 0.316 µM): 66.4% and 73% and 56%
- viability, T/C (compound 1 µM): 43.2% and 38.8% and 31.6%
- viability, T/C (compound 3.16 µM): 29% and 26% and 19.7%
- viability, T/C (compound 10 µM): 13.7% and 15.4% and 10.6%
